Data reported in US10792311B2, “Stimulation of ovarian follicle development and oocyte maturation” (The Board of Trustees of the Leland Stanford Junior …, priority 2011, dated 2020).

Experiments:
[1] = short term infusion in humans, supraphysiological levels in plasma; cited from earlier work
[2] = tested on: somatic cells from ovaries of mice at day 13 of age; experiment: cGMP and cAMP production by cultured somatic cells; type: cell-based; settings: day 13 mice, 2 h
Protocol: (§1) Stimulation of cGMP, but not cAMP, production by cultured ovarian somatic cells: Because the NPRB receptors mediated cGMP production stimulated by the CNP ligand, we isolated somatic cells from ovaries of mice at day 13 of age and granulosa cells from mice at day 21 of age before treatment with increasing doses of CNP or a high dose (30 nM) of ANP for 2 h. Media content of both cGMP and cAMP were determined by RIA.

[3] = tested on: early antral follicles; experiment: In vivo treatment of prepubertal mice (day 21) with CNP followed by hCG, in vitro fertilization, mating
Protocol: To further test the ability of CNP to stimulate the development of early antral follicles to the preovulatory stage, prepubertal mice at day 21 days of age were treated i.p. with CNP daily for 4 days followed by a single injection of an ovulatory dose of hCG. At […] after hCG treatment, the number of ovulated mature oocytes were determined.
We further tested if ovulated oocytes retrieved after CNP pretreatment are capable of being fertilized. Oocytes were obtained from oviducts of CNP-pretreated prepubertal mice after hCG treatment and used for in vitro fertilization. We used oocytes obtained from prepubertal mice treated sequential with eCG (2 days) and hCG (16 h) as controls. […] Some prepubertal females pretreated with CNP followed by hCG to induce ovulation were mated with fertile males.
(§2) In vivo treatment with CNP, ovulation, and pregnancy: Infantile mice at day 13 of age were treated with CNP (20 ug/kg body weight) i.p. daily for 4 days. This was followed by a single injection of eCG (5 IU) for 2 days to stimulate penultimate follicle maturation before collection of ovaries for weighting and histological analyses. Some animals were further treated with an ovulatory dose (5 IU) of hCG and oocytes in oviducts were monitored at 16 h later to evaluate ovulation efficiency. To test the effects of CNP on early antral follicle growth, prepubertal mice at day 21 of age were treated intraperitoneally with CNP (50 ug/kg body weight) daily for four days to stimulate preovulatory follicle development, followed by the injection of an ovulatory dose (2.5 IU) of hCG. At 16 h later, number of ovulated oocytes was determined. Mature oocytes obtained from CNP-pretreated animals were used for in vitro fertilization. Sperm from CD1 male mice (10-12 weeks old) were collected into human tubal fluid media (Millipore) and incubated for 1 h at 37 C. Oocytes were fertilized with sperm (2-3×10^5/ml) for 6 h and inseminated oocytes were transfer into KSOM-AA medium (Millipore) to allow development into blastocysts. Some of the CNP-pretreated females were mated with fertile males for the monitoring of pregnancy and the delivery of pups.

[4] = tested on: ovaries from day 10 mice; experiment: Ovarian explant cultures treated with CNP and/or FSH; type: cell-based; settings: 4 days culture
Protocol: Ovarian explant cultures: Ovaries from day 10 mice were placed on culture plate inserts (Millipore, Bedford, Mass.) and cultured in 400 μl of DMEM/F12 containing 0.1% BSA (Sigma), 0.1% Albumax II, insulin-transferrin-selenium, 0.05 mg/ml L-ascorbic acid and penicillin-streptomycin under the membrane insert to cover ovaries with a thin layer of medium. […] Some explants were also treated with a pan-specific protein kinase G inhibitor, Rp-8-Br-PET-cGMPS (BioLog, Bremen, Germany). At the end of culture, ovaries were fixed in Bouin's solution, paraffin embedded, and cut into continuous sections before staining with hematoxylin and eosin.

[5] = tested on: human ovarian cortical fragments; experiment: Xenografts of human ovarian cortical fragments; type: in vivo
[6] = Observation of abnormalities after 4 days of CNP treatment; type: in vivo, mice; settings: present dosages and injection protocols
Description: CNP acts exclusively through NPRB whereas ANP and BNP act through NPRA. […] The apparent lack of side effects using the present low doses of CNP is consistent with earlier reports showing minimal cardiac and renal actions using physiological concentrations of CNP.

[7] = tested on: granulosa cells from mice at day 21 of age; experiment: cGMP and cAMP production by cultured granulosa cells; type: cell-based; settings: day 21 mice, 2 h
Protocol: as §1

[8] = tested on: preantral follicles; experiment: In vivo treatment of juvenile mice (day 13) with CNP followed by eCG/hCG; settings: day 13 mice
Protocol: In vivo treatment with CNP promoted follicle development for ovulation and subsequent pregnancy in juvenile, prepubertal, and adult mice: To test the ability CNP to stimulate preantral follicle development in vivo, juvenile mice at day 13 of age were treated i.p. with CNP daily for 4 days. This was followed by a single i.p. injection of eCG for 2 more days before determination of ovarian weight. […] Some of these animals were further treated with an ovulatory dose of hCG to check ovulation efficiency.
as §2

[9] = tested on: preantral follicles; experiment: Preantral follicle culture; type: cell-based, mice
Description: CNP treatment promoted the growth of preantral follicles and cultured ovarian explants: Preantral follicles (125-135 um in diameter) were isolated from ovaries of mice at day 13 of age and treated with different hormones for four days with daily monitoring of follicle diameters. […] In contrast, treatment with ANP was ineffective.
Dissection follicles of different sizes and culturing of preantral follicles: For RT-PCR analyses, early secondary follicles of 90-140 um in diameters were isolated from mice at day 13 of age whereas antral follicles (300-400 um in diameter) were isolated from prepubertal mice at day 23 of age. Preovulatory follicles (500-600 um in diameter) were isolated from prepubertal mice treated with eCG (5 IU). For follicle cultures, preantral follicles (125-145 um in diameter) were isolated from mice at day 13 of age and cultured individually in 96 well plates containing alpha-MEM (100 ul/well) with penicillin and streptomycin together with insulin, transferrin and selenium. […] The media were changed every two days and follicle growth was monitored daily by measuring follicle diameters.

In the case of “CNP: 22 amino acid peptide cleaved from NPPC precursor; activates natriuretic peptide receptor-B (NPRB)”, the “Vasodepressor or natriuretic action” value [1] is given as “not vasodepressor or natriuretic”, the cAMP production [2] is given as “no changes in cAMP production” and the “Media content of cGMP” value ([2]; ANP 30 nM) is given as “dose-dependent increases in media content of cGMP”. For the same substance, the “Number of ovulated oocytes induced by hCG vs saline” value ([3]; day 21 mice, 18 h after hCG) was “an increase in the number of ovulated oocytes”, the Ovarian weight ([3]; day 21 mice, i.p. 50 ug/kg daily for 4 days, then hCG) was “increased ovarian weight” and the “Development of fertilized oocytes to the blastocyst stage vs control oocytes (eCG-hCG)” value ([3]; in vitro fertilization of oocytes of CNP-pretreated prepubertal mice) was “same efficiency”. The “Pregnancy after mating with fertile males” value ([3]; prepubertal females pretreated with CNP followed by hCG) was “Successful pregnancy was demonstrated followed by the delivery of healthy pups”, the “Development of preantral follicles (histological analyses)” value [4] was “promoted the development of preantral follicles” and the “Ovarian weights of explants, both CNP and FSH included” value ([4]; combined with FSH) was “additive increases”. The “Ovarian weights of explants” value ([4]; day 10 ovaries) was “dose-dependent increases in ovarian weights”, the “Follicle growth as revealed by follicle counting” value [5] was “stimulated follicle growth” and the Abnormalities following treatment [6] was “did not observe abnormalities”. For the same substance, the cAMP production [7] was “no changes in cAMP production”, the “Media content of cGMP” value ([7]; ANP 30 nM) was “dose-dependent increases in media content of cGMP” and the “Ovulated oocytes in the oviducts vs controls” value ([8]; CNP, then eCG and hCG) was “higher numbers of ovulated oocyte”. For the same substance, the “Increase in ovarian weight” value ([8]; i.p. 20 ug/kg daily for 4 days, then eCG 2 days) was 56%, the “Development of antral follicles (histological analyses)” value ([8]; i.p. daily for 4 days, then eCG) was “increases in the development of antral follicles” and the “Follicle growth, combined treatment with CNP and FSH” value ([9]; FSH 25 ng/ml) was “additive increases in follicle growth”. For the same substance, the “Follicle size compared with 8-bromo-cGMP” value ([9]; four days culture) was “comparable” and the “Follicle size (diameter)” value ([9]; preantral follicles of day 13 mice, four days) was “dose- and time-dependent increases in follicle size”.
